{
  "source": "patent US20250129062A1",
  "about": "“AMORPHOUS SUBSTANCES, CRYSTALS, PHARMACEUTICAL COMPOSITIONS, PREPARATION METHODS AND USES OF THIOHYDANTOIN COMPOUND OR PHARMACEUTICALLY ACCEPTABLE SALT THEREOF” (SUZHOU KINTOR PHARMACEUTICALS, INC., priority 2021, published 2025)",
  "key": {"[1]": {"assay": "Long-term stability experiment of amorphous substance", "format": "physicochemical", "conditions": "for purity (HPLC): Long term", "experimental": "Referring to ICH Q1A stability testing of new drug substances and products, the amorphous substance of the compound of formula I prepared in example 1 was subjected to a long-term stability experiment (experimental condition: 25±2° C., RH 60%=5%) and an accelerated stability experiment (experimental condition: 40±2° C., RH 75%=5%). The purity of the sample at different times was detected by HPLC under condition 2 to evaluate the physicochemical stability of the amorphous substance of the compound of formula I. The results were as shown in Table 18.\nCondition 2: • Instruments: Agilent 1260; • Chromatographic column: C18 (150 mm×4.6 mm×3.5 μm); • column temperature: 45° C.; • Mobile phase: binary mobile phase system, mobile phase A was a 10 mM aqueous ammonium acetate solution (preparation method: ammonium acetate was added into purified water, and mixed evenly, and pH value was adjusted to 4.50±0.05 with acetic acid), mobile phase B was acetonitrile; • Elution mode: gradient elution, with specific procedures as shown in Table 17; • flow rate: 1.0 mL/min; • Injection volume: 5 μL; • Detection wavelength: 270 nm; • Data acquisition: OpenLab CDS2 software."}, "[2]": {"assay": "Distribution of compound in sebaceous glands and blood of golden hamsters after single skin application", "format": "in vivo", "conditions": "golden hamsters, administration via skin application; listed as amorphous substance of the compound of formula I", "experimental": "6 male golden hamsters were selected for the experiment, and randomly divided evenly into 2 groups, with three golden hamsters per group. All animals were fasted overnight before administration, and were administered via a route of single application. Sampling was performed at specific time points after administration. Specific information on animal grouping, administration, sampling, etc. were detailed in Table 6.\nThe amorphous substance of the compound of formula I was weighed and placed in a 50 mL centrifugal tube. A mixed solvent (consisting of 75% v/v ethanol, 15% v/v glyceryl tri (2-ethylhexanoate) and 10% v/v glycerin) was added. After vortexing, heating was performed at 60° C. until the amorphous substance of the compound of formula I was completely dissolved. The amorphous substances of the compound of formula I in the two groups were prepared at 30 mg/mL and 100 mg/mL, respectively, and stored at room temperature in the dark.\nAfter administration, blood was collected into blood collection tubes containing a heparin sodium anticoagulant at corresponding time points. Immediately after collection of whole blood, the blood collection tubes were gently shaken and placed on ice, and then centrifuged (4° C., 4000 rpm, 10 min). The supernatant plasma samples (plasma volume ≥100 μL) were collected, and stored in a refrigerator at about −80° C. The plasma samples were collected for 8 h for analysis."}},
  "data": [
    {"smiles": "Cc1ncsc1-c1ccc(CNC(=O)[C@@H]2C[C@@H](O)CN2C(=O)[C@@H](NC(=O)COCCCCOc2ccc(-c3ccc(N4C(=S)N(c5ccc(C#N)c(C(F)(F)F)c5F)C(=O)C4(C)C)cn3)cc2)C(C)(C)C)cc1", "values": [
      {"measurement": "purity (HPLC)", "setting": "[1]; 3 months", "result": 99.36, "unit": "%"},
      {"measurement": "purity (HPLC)", "setting": "[1]; 6 months", "result": 99.37, "unit": "%"},
      {"measurement": "purity (HPLC)", "setting": "[1]; 9 months", "result": 99.29, "unit": "%"},
      {"measurement": "purity (HPLC)", "setting": "[1]; 25±2° C., RH 60%=5%, 0 month", "result": 99.25, "unit": "%"},
      {"measurement": "stability", "setting": "[1]; long-term, accelerated and high-temperature stability experiments", "result": "excellent stability"},
      {"measurement": "distribution between sebaceous glands and blood after skin application", "setting": "[2]", "result": "can enter sebaceous glands but cannot enter blood"}
    ]}
  ]
}
